Test results from US11420998B2, “Aromatic-cationic peptides and methods for using same” (Stealth Biotherapeutics Inc., priority 2011, dated 2022).
Square brackets hold non-standard residues; d marks the D form. Ends that are not written are not given here. Peptide text beside a SMILES is read from it. Dmt = Cc1cc(O)cc(C)c1C[C@H](N)C(=O)O

Key:
[1] = tested on: several mammalian cell types; details: energy-independent manner (Zhao et al., 2003); cited from earlier work
[2] = in vivo
Procedure: Six weeks after induction of RAS, animals were similarly anesthetized, the degree of stenosis determined by angiography, and subjects were treated with PTRA or sham. Heating pads maintained the animal's body temperature by about 37° C. during surgery, and PTRA and stenting performed under fluoroscopic guidance, as previously described. In addition, ARAS subjects were treated with a continuous intravenous infusion of peptide 0.050 mg/kg or an equal volume of saline vehicle from 30 min before to 3.5 hrs after PTRA or sham. […] Urinary samples were collected before peptide infusion and 210 min after PTRA.
4 mL venous whole blood samples were collected from peptide-treated animals at baseline (immediately before peptide infusion), immediately before PTRA, and 30 and 180 min post-reperfusion. Venous blood were drawn using syringes into BD Vacutainer® PST™ Plasma Separation Tubes (lavender top) containing K2EDTA, 10 mL/tube. Tubes were gently inverted 8 times and kept in an ice water bath until centrifugation. Within an hour samples were centrifuged in a swing bucket centrifuge at 1000-1300 RCF (or […]) for 15 min at 4° C. Plasma were harvested from individual blood tubes, placed in a single polypropylene vials (or screw-cap tubes) and stored at approximately −80° C. until assay.
The plasma concentration of D-Arg-2′,6′-Dmt-Lys-Phe-NH2 was determined using a qualified LC/MS/MS assay in K2-EDTA pig plasma. The assay employed deuterium labeled d5-D-Arg-2′,6′-Dmt-Lys-Phe-NH2 as the analytical internal standard (IS). […] Positive (M+2H)^2+ ions for D-Arg-2′,6′-Dmt-Lys-Phe-NH2 and the IS (d5-D-Arg-2′,6′-Dmt-Lys-Phe-NH2) were monitored in MRM mode. Drug-to-IS peak area ratios for the standards were used to create a linear calibration curve ranging from 2.5 to 1000 ng/mL.
Peptide IV infusion started at 30 minutes prior to the PTRA procedure and continued for 210 minutes at 0.05 mg/kg/h.

[3] = tested on: inner mitochondrial membrane; details: cited from earlier work
[4] = biological target: mu-opioid receptor (Homo sapiens, UniProt P35372); details: stated without data; assays cited; cited from earlier work
Chain of mu-opioid receptor (P35372 whole entry, species assumed): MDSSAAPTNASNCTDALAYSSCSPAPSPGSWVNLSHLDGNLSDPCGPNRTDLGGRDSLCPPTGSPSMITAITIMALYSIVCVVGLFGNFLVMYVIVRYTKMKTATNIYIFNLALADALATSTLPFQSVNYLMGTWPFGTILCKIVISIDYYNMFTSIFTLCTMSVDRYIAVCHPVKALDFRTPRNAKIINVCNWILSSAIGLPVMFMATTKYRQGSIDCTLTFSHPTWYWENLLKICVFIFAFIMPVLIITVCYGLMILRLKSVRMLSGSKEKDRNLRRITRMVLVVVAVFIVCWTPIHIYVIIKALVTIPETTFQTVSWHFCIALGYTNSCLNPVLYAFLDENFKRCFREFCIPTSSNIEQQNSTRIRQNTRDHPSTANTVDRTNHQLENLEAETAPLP

Compound: 2′,6′-Dmt-D-Arg-Phe-Lys-NH2
- penetration of the plasma membrane [1]: readily penetrates

Compound: Cc1cc(O)cc(C)c1C[C@H](NC(=O)[C@H](N)CCCNC(=N)N)C(=O)N[C@@H](CCCCN)C(=O)N[C@@H](Cc1ccccc1)C(N)=O [D-Arg-2′,6′-Dmt-Lys-Phe-NH2] (H-[dR][Dmt]KF-NH2)
- Mean peptide Concentration ([2]; 0 min from peptide infusion (−30 min from PTRA), 3.5-h IV infusion 0.05 mg/kg/h): BQL
- Mean peptide Concentration ([2]; 30 min from peptide infusion (time of PTRA), IV infusion 0.05 mg/kg/h): 100.6 ± 36.2 ng/mL
- Mean peptide Concentration ([2]; 30 min from peptide infusion (time of PTRA), IV infusion 0.05 mg/kg/h, listed as Peptide): 100.6 ng/mL
- level at 0.5 h ([2]; pig, plasma, iv, 0.05 mg/kg/h, Mean peptide Concentration, 30 min from peptide infusion (time of PTRA), IV infusion 0.05 mg/kg/h): ~100 ng/mL
- level at 1 h ([2]; pig, plasma, iv, 0.05 mg/kg/h, Mean peptide Concentration, 60 min from peptide infusion (30 min from PTRA), IV infusion 0.05 mg/kg/h): 118 ± 23.7 ng/mL
- level at 1.5 h ([2]; pig, plasma, iv, 0.05 mg/kg/h, Mean peptide Concentration, 90 min from peptide infusion (60 min from PTRA), IV infusion 0.05 mg/kg/h): 125 ± 21.4 ng/mL
- level at 3.5 h ([2]; pig, plasma, iv, 0.05 mg/kg/h, Mean peptide Concentration, 210 min from peptide infusion (180 min from PTRA), IV infusion 0.05 mg/kg/h): 111 ± 42 ng/mL
- time to apparent steady state concentration ([2]; post start of IV infusion): 60 to 90 min
- concentration in the inner mitochondrial membrane [3]: 500-5000 fold

Compound: F[dR]FK-NH2
- mu-opioid receptor agonist activity [4]: does not have mu-opioid receptor agonist activity

Compound: Tyr-D-Arg-Phe-Lys-NH2
- mu-opioid receptor agonist activity [4]: has mu-opioid receptor agonist activity
